Test results reported in paper PMC10004634 (PLOS ONE, 2023).
Read-outs that look alike come from different tables or passages of the source.

Columns and labels:
[1] = molecular target: CDK8 (Homo sapiens, UniProt P49336); assay: biochemical; design: KINOMEscan scanMAX competition binding, DNA-tagged kinases, qPCR read-out, percent control at 300 nM
[2] = molecular target: EGFR(L858R,T790M) (Homo sapiens, UniProt P00533, L858R/T790M); assay: biochemical; design: KINOMEscan scanMAX competition binding, DNA-tagged kinases, qPCR read-out, percent control at 300 nM
[3] = molecular target: EPHA8 (Homo sapiens, UniProt P29322); assay: biochemical; design: KINOMEscan scanMAX competition binding, DNA-tagged kinases, qPCR read-out, percent control at 300 nM
[4] = molecular target: ERBB4 (Homo sapiens, UniProt Q15303); assay: biochemical; design: KINOMEscan scanMAX competition binding, DNA-tagged kinases, qPCR read-out, percent control at 300 nM
[5] = molecular target: T1, MRCKB (Homo sapiens, UniProt Q9Y5S2); assay: biochemical; design: KINOMEscan scanMAX competition binding, DNA-tagged kinases, qPCR read-out, percent control at 300 nM
T1 construct: gene CDC42BPB

[6] = molecular target: T2, PCTK2 (Homo sapiens, UniProt Q00537); assay: biochemical; design: KINOMEscan scanMAX competition binding, DNA-tagged kinases, qPCR read-out, percent control at 300 nM
T2 construct: gene CDK17

[7] = molecular target: PRKD1 (Homo sapiens, UniProt Q15139); assay: biochemical; design: KINOMEscan scanMAX competition binding, DNA-tagged kinases, qPCR read-out, percent control at 300 nM
[8] = molecular target: T3, RSK2(Kin.Dom.1-N-terminal) (Homo sapiens, UniProt P51812); assay: biochemical; design: KINOMEscan scanMAX competition binding, DNA-tagged kinases, qPCR read-out, percent control at 300 nM
T3 construct: gene RPS6KA3; Kin.Dom.1-N-terminal

[9] = molecular target: T4, RSK3(Kin.Dom.1-N-terminal) (Homo sapiens, UniProt Q15349); assay: biochemical; design: KINOMEscan scanMAX competition binding, DNA-tagged kinases, qPCR read-out, percent control at 300 nM
T4 construct: gene RPS6KA2; Kin.Dom.1-N-terminal

[10] = molecular target: TAOK3 (Homo sapiens, UniProt Q9H2K8); assay: biochemical; design: KINOMEscan scanMAX competition binding, DNA-tagged kinases, qPCR read-out, percent control at 300 nM
[11] = molecular target: TNNI3K (Homo sapiens, UniProt Q59H18); assay: biochemical; design: KINOMEscan scanMAX competition binding, DNA-tagged kinases, qPCR read-out, percent control at 300 nM
[12] = molecular target: T5, TYK2(JH2domain-pseudokinase) (Homo sapiens, UniProt P29597); assay: biochemical; design: KINOMEscan scanMAX competition binding, DNA-tagged kinases, qPCR read-out, percent control at 300 nM
T5 construct: JH2domain-pseudokinase

[13] = molecular target: FYN (Homo sapiens, UniProt P06241); assay: mobility shift assay (MSA)
[14] = molecular target: LYNa (Homo sapiens, UniProt P07948); assay: mobility shift assay (MSA)
[15] = molecular target: LCK (Homo sapiens, UniProt P06239); assay: mobility shift assay (MSA)
[16] = molecular target: CSK (Homo sapiens, UniProt P41240); assay: mobility shift assay (MSA)
[17] = molecular target: T6, RPS6KA4(Kin.Dom.1-N-terminal) (Homo sapiens, UniProt O75676); assay: biochemical; design: KINOMEscan scanMAX competition binding, DNA-tagged kinases, qPCR read-out, percent control at 300 nM
T6 construct: Kin.Dom.1-N-terminal

[18] = molecular target: TLK1 (Homo sapiens, UniProt Q9UKI8); assay: biochemical; design: KINOMEscan scanMAX competition binding, DNA-tagged kinases, qPCR read-out, percent control at 300 nM
[19] = molecular target: T7, TEC (Homo sapiens, UniProt P42680); assay: KINOMEscan binding assay; design: purchased Eurofins DiscoverX (KINOMEscan scanMAX service)
T7 sequence (P42680 1-631): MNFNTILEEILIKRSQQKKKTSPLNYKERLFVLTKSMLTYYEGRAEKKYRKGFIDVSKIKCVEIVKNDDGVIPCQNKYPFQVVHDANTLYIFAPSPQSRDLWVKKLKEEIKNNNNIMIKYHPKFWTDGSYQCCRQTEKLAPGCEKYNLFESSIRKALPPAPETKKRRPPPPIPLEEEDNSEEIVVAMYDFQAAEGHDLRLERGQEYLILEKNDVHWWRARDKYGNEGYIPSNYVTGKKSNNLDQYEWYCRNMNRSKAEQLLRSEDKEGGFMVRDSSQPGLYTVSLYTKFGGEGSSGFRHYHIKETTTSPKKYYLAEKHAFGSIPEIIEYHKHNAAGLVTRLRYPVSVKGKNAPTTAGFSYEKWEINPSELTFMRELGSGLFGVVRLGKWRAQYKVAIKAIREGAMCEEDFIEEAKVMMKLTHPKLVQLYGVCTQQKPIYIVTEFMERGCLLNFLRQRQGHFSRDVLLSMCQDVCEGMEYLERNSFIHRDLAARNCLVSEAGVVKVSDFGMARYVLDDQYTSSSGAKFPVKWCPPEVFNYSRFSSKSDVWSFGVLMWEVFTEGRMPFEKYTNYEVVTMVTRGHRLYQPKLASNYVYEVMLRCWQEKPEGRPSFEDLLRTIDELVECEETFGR

[20] = read-out: Percent control / Acalabrutinib
[21] = read-out: Percent control / Ibrutinib
[22] = read-out: Percent control / Tirabrutinib
[23] = read-out: Percent control / Zanubrutinib

T5 sequence (P29597 whole entry): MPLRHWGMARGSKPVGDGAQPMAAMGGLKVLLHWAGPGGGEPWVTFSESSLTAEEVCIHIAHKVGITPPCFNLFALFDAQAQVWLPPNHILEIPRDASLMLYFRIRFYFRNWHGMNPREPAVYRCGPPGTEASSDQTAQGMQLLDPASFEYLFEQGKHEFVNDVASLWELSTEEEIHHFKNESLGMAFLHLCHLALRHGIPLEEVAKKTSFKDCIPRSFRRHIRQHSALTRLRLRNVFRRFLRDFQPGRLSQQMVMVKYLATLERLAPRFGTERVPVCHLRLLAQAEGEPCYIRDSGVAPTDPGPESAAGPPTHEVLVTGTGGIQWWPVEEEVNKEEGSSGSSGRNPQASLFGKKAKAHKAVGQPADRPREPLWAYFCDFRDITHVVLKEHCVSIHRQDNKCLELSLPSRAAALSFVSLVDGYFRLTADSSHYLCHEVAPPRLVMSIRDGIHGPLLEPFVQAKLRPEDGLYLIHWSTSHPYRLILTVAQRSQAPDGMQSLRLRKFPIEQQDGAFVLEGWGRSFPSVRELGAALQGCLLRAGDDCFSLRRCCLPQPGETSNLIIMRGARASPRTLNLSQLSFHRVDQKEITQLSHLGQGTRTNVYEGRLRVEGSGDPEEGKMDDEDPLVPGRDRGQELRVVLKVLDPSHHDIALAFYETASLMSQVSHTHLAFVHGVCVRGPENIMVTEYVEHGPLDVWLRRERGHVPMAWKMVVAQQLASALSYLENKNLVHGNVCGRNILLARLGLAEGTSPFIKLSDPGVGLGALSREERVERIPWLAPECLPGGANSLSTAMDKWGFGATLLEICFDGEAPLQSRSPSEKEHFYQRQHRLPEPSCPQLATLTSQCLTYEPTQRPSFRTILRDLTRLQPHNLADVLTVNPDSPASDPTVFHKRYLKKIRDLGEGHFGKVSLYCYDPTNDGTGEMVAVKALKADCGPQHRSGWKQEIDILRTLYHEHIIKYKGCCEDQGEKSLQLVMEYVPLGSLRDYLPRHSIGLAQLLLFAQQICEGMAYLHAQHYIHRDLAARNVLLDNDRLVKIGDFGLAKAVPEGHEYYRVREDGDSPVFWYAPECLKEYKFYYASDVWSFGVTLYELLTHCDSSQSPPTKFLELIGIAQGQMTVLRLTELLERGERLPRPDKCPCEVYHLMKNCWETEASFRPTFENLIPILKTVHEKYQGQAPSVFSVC
T1 sequence (Q9Y5S2 whole entry): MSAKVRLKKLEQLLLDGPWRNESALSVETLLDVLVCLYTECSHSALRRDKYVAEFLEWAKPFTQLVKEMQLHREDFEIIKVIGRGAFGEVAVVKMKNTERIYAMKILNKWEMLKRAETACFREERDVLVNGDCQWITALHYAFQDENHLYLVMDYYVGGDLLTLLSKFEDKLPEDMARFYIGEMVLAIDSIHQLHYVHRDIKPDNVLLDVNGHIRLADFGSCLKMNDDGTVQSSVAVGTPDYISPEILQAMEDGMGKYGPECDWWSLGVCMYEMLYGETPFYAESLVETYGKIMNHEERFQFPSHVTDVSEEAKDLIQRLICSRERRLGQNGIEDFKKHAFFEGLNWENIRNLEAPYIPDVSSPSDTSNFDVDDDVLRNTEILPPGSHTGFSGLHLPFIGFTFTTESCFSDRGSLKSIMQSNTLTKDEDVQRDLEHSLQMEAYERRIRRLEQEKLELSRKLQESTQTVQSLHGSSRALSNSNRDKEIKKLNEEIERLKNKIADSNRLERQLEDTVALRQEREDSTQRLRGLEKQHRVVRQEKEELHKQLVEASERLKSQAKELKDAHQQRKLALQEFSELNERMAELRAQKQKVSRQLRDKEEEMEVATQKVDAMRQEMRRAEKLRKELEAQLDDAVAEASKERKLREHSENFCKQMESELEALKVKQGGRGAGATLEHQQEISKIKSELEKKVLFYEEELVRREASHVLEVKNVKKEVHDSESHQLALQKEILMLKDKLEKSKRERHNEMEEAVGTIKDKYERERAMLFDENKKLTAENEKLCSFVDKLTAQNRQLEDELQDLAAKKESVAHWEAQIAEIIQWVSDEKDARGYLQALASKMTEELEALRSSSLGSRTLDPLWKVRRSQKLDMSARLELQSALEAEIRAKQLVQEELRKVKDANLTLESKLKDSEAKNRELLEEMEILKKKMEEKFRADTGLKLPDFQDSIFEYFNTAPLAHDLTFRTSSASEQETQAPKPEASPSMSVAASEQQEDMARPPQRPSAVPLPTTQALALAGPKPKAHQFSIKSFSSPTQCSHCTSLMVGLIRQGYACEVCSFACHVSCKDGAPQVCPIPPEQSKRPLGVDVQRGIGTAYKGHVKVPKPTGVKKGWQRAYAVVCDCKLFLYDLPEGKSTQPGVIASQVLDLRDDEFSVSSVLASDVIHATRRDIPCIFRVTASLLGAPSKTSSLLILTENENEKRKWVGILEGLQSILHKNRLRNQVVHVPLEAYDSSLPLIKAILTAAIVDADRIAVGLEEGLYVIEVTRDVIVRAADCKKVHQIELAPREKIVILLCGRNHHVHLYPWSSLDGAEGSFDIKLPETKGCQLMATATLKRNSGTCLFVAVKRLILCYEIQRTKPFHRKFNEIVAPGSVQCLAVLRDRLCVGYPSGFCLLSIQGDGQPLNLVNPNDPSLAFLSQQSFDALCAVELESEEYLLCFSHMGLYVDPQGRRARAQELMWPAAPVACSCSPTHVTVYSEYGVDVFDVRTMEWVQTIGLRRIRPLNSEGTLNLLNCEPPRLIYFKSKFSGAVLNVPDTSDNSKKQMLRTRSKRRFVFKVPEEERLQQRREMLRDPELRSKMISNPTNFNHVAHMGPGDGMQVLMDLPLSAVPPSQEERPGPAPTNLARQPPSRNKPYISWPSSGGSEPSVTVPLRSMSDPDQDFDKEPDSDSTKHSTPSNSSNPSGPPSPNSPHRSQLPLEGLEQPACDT
Sequence of ERBB4 (Q15303 whole entry): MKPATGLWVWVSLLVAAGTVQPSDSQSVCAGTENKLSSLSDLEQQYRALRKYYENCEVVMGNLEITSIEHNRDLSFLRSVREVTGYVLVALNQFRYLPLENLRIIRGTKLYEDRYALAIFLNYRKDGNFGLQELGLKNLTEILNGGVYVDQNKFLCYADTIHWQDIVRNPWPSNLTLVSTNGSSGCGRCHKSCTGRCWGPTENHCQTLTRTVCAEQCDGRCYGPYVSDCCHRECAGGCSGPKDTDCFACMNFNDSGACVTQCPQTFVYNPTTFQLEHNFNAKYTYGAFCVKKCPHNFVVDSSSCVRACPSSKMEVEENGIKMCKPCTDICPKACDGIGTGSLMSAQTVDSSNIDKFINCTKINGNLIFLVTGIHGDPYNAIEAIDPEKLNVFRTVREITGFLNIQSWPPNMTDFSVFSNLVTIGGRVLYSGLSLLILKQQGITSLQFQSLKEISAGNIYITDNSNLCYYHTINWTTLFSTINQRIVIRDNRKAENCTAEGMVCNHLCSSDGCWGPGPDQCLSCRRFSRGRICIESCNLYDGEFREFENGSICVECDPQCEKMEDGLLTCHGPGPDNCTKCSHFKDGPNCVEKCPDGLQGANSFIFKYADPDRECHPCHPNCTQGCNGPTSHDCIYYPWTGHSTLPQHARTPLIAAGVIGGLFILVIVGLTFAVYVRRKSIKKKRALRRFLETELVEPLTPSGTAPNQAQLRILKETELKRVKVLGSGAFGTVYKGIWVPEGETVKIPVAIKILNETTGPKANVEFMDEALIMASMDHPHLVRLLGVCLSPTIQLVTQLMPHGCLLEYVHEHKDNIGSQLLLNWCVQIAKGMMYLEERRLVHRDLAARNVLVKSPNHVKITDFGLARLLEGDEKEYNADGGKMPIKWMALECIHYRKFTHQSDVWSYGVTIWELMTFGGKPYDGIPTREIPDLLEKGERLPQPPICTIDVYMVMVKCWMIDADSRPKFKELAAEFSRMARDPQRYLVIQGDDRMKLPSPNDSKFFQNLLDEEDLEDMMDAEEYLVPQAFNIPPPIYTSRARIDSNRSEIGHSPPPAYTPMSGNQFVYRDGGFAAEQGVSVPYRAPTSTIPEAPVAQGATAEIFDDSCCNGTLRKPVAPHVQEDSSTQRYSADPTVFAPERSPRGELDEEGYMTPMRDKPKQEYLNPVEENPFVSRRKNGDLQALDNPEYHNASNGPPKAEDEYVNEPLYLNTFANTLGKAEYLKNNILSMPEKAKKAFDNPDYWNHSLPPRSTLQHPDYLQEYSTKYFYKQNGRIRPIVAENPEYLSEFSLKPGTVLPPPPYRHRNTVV
T2 sequence (Q00537 whole entry): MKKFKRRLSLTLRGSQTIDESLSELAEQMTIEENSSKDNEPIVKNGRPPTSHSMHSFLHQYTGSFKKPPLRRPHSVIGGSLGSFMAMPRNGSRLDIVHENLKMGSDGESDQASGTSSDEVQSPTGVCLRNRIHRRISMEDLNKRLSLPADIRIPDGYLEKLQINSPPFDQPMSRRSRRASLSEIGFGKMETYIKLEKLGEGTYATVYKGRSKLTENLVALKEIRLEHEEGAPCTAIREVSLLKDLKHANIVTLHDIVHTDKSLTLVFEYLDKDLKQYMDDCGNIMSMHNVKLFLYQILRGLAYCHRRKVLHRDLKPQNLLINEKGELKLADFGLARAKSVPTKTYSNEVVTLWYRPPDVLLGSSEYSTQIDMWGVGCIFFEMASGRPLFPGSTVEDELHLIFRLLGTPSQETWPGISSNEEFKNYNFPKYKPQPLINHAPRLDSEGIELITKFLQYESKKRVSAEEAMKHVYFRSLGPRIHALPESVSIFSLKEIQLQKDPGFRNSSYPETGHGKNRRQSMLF

CC#CC(=O)N1CCC[C@H]1c1nc(-c2ccc(C(=O)Nc3ccccn3)cc2)c2c(N)nccn12 [Acalabrutinib] gave a remaining binding at 0.3 µM [1, 20] of 93%, a remaining binding at 0.3 µM [2, 20] of 97% and a remaining binding at 0.3 µM [3, 20] of 96%. The remaining binding at 0.3 µM [4, 20] was 7.7%, the remaining binding at 0.3 µM [5, 20] was 93% and the remaining binding at 0.3 µM [6, 20] was 97%. For the same compound, the remaining binding at 0.3 µM [7, 20] was 95%, the remaining binding at 0.3 µM [8, 20] was 84% and the remaining binding at 0.3 µM [9, 20] was 85%. For the same compound, the remaining binding at 0.3 µM [10, 20] was 99%, the remaining binding at 0.3 µM [11, 20] was 66% and the remaining binding at 0.3 µM [12, 20] was 97%. The IC50 [13] was greater than 10000 nM, the IC50 [14] was greater than 10 µM and the IC50 [15] was 5200 nM. For the same compound, the IC50 [16] was 6.65 µM.
Compound C=CC(=O)N1CCC[C@@H](n2nc(-c3ccc(Oc4ccccc4)cc3)c3c(N)ncnc32)C1 [Ibrutinib] has a remaining binding at 0.3 µM [4, 21] of 0.15%, a remaining binding at 0.3 µM [17, 21] of 87% and a remaining binding at 0.3 µM [10, 21] of 98%. For the same compound, the remaining binding at 0.3 µM [18, 21] was 80%.
CC#CC(=O)N1CC[C@@H](n2c(=O)n(-c3ccc(Oc4ccccc4)cc3)c3c(N)ncnc32)C1 [Tirabrutinib] was tested, and the remaining binding at 0.3 µM [2, 22] was 100%, the remaining binding at 0.3 µM [11, 22] was 91% and the IC50 [13] was 2220 nM. For the same compound, the IC50 [14] was 3.49 µM, the IC50 [15] was 788 nM and the IC50 [16] was 0.449 µM. It also gave an inhibition at 0.3 µM ([19]; 300 nM, read-out: inhibition of kinase binding (KINOMEscan)) of 92.2%.
Work on C=CC(=O)N1CCC([C@@H]2CCNc3c(C(N)=O)c(-c4ccc(Oc5ccccc5)cc4)nn32)CC1 [Zanubrutinib] yielded a remaining binding at 0.3 µM [1, 23] of 100%, a remaining binding at 0.3 µM [3, 23] of 90% and a remaining binding at 0.3 µM [5, 23] of 90%. The remaining binding at 0.3 µM [6, 23] was 82%, the remaining binding at 0.3 µM [7, 23] was 82% and the remaining binding at 0.3 µM [17, 23] was 100%. For the same compound, the remaining binding at 0.3 µM [8, 23] was 82%, the remaining binding at 0.3 µM [9, 23] was 100% and the remaining binding at 0.3 µM [18, 23] was 92%. It also gave a remaining binding at 0.3 µM [12, 23] of 82% and a Percent control ([19]; kinase TEC (Entrez TEC)) of 20%.
